According to patent publication US8193362B2 (Syngenta Crop Protection LLC, priority 2008, dated 2012):

Tests used:
Format in all cases: in vivo
[1] = test system: Spodoptera littoralis (Egyptian Cotton Leafworm); assay: Spodoptera littoralis cotton leaf disc spray test; conditions: foliar, 72 h, 200 ppm spray on cotton leaf discs, L1 larvae, mortality, feeding behavior, growth regulation 3 DAT
Excerpt: Spodoptera littoralis (Egyptian Cotton Leafworm)
Cotton leaf discs were placed on agar in a 24-well microtiter plate and sprayed with test solutions at an application rate of 200 ppm. After drying, the leaf discs were infested with 5 L1 larvae. The samples were checked for mortality, feeding behavior, and growth regulation 3 days after treatment (DAT).

[2] = test system: Heliothis virescens (Tobacco Budworm); assay: Heliothis virescens egg test on artificial diet in 24-well microtiter plate; conditions: 96 h, 200 ppm (concentration in well 18 ppm), eggs 0-24 h old, 4 days, egg mortality, larval mortality, growth regulation
Method: (§1) Heliothis virescens (Tobacco Budworm):
Eggs (0-24 h old) were placed in 24-well microtiter plate on artificial diet and treated with test solutions at an application rate of 200 ppm (concentration in well 18 ppm) by pipetting. After an incubation period of 4 days, samples were checked for egg mortality, larval mortality and growth regulation.

[3] = test system: Plutella xylostella (Diamond Back Moth); assay: Plutella xylostella L2 larvae test on artificial diet in 24-well microtiter plate; conditions: 144 h, 200 ppm (concentration in well 18 ppm), 6 days, larval mortality, growth regulation
Method: Plutella xylostella (Diamond Back Moth):
(§2) A 24-well microtiter plate (MTP) with artificial diet was treated with test solutions at an application rate of 200 ppm (concentration in well 18 ppm) by pipetting. After drying, the MTP's were infested with L2 larvae (7-12 per well). After an incubation period of 6 days, samples were checked for larval mortality and growth regulation.

[4] = test system: Diabrotica balteata (Corn Root Worm); assay: Diabrotica balteata L2 larvae test on artificial diet in 24-well microtiter plate; conditions: 120 h, 200 ppm (concentration in well 18 ppm), 5 days, larval mortality, growth regulation
Method: Diabrotica balteata (Corn Root Worm):
as §2, with “with” for “with L2”, “(L2) (6-10” for “(7-12”, “5” for “6”, “mortality,” for “mortality”

[5] = test system: Heliothis virescens (Tobacco Budworm); assay: Comparative Heliothis virescens egg test in petri dishes on artificial diet; conditions: 144 h, 6 days incubation, read-out: percentage of dead larvae; for pest or weed control at 0.8 ppm: concentration 0.8 ppm; for pest or weed control at 1.5 ppm: concentration 1.5 ppm; for pest or weed control at 3 ppm: concentration 3 ppm; for pest or weed control at 6 ppm: concentration 6 ppm
Method: This Example illustrates the pesticidal/insecticidal properties of compounds of formula (I) compared to Comparative Compound A and Comparative Compound B. Comparative Compound A and Comparative Compound B were disclosed in WO 2006/003494.
as §1
Fresh eggs (0-24 h old) on filterpaper were placed in petri dishes on top of a layer of artificial diet and treated with diluted test solutions by pipetting. After an incubation period of 6 days, samples were checked for larval mortality and growth regulation. The percentage of dead larvae was assessed.

Row | SMILES | pest or weed control at 200 ppm [1] [%] | pest or weed control at 200 ppm [2] [%] | pest or weed control at 200 ppm [3] [%] | pest or weed control at 200 ppm [4] [%] | pest or weed control at 0.8 ppm [5] [%] | pest or weed control at 1.5 ppm [5] [%] | pest or weed control at 3 ppm [5] [%] | pest or weed control at 6 ppm [5] [%]
1 | O=C(Nc1cc(Cl)c(Br)nc1C1CCN(C/C=C/c2ccc(Cl)cc2)CC1)c1ccnc(Cl)c1 [Compound E7, N-{6-bromo-1′-[(E)-3-(4-chloro-phenyl)-allyl]-5-chloro-1′,2′,3′,4′,5′,6′-hexahydro-[2,4′]bipyridinyl-3-yl}-2-chloro-isonicotinamide] | ≥ 80 | ≥ 80 | ≥ 80 | ≥ 80 | 100 | 100 | 100 | 100
2 | O=C(Nc1cc(C(F)(F)F)c(Cl)nc1C1CCN(C/C=C/c2ccc(Cl)cc2)CC1)c1ccnc(Cl)c1 [Compound F2, 2-chloro-N-{6-chloro-1′-[(E)-3-(4-chloro-phenyl)-allyl]-5-trifluoromethyl-1′,2′,3′,4′,5′,6′-hexahydro-[2,4′]bipyridinyl-3-yl}-isonicotinamide] | ≥ 80 | ≥ 80 | ≥ 80 | ≥ 80 | 100 | 100 | 100 | 100
3 | O=C(Nc1cc(C(F)(F)F)c(Br)nc1C1CCN(C/C=C/c2ccc(Cl)cc2)CC1)c1ccnc(Cl)c1 [Compound G1, 2-chloro-N-{6-bromo-1′-[(E)-3-(4-chloro-phenyl)-allyl]-5-trifluoromethyl-1′,2′,3′,4′,5′,6′-hexahydro-[2,4′]bipyridinyl-3-yl}-isonicotinamide] | ≥ 80 | ≥ 80 | ≥ 80 | ≥ 80 | 100 | 100 | 100 | 100
